Laboratory results taken from patent US20210393503A1, “ORGANIC COMPOUNDS” (GIVAUDAN SA, priority 2017, published 2021).
Like-named read-outs stand apart in the source and are kept apart here.

Assays:
[1] = system: Reconstituted Human Oral Epithelium (RHO) colonized with S. Aureus; assay: Biofilm formation by TEER on colonized RHO; format: cell-based
Procedure: (§1) Immediately after the arrival in the laboratory, the RHO was removed from the agarose nutrient solution under a sterile airflow cabin. The inserts were rapidly placed in a 6-well plate previously filled with 1 ml of the maintenance medium containing antibiotics at room temperature. The wells were placed in an incubator at 37° C., 5% CO2 and saturated humidity overnight.
(§2) The protocol was performed on duplicate tissues for bacterial burden and on single tissue for further morphological analysis (SEM, H&E).
(§3) S. aureus MRSA ATCC 33591 was thawed and cultured in nutrient broth at 37° C., under agitation.
(§4) 30 μL of intermediate molecular weight hyaluronic acid solution (0.2% w/v) or of chlorhexidine (CHL) 0.2% (positive control), respectively, were topically applied to RHO samples, and incubated for 24 h. Then, the product residual volume was removed by a micropipette from the epithelium surface.
The RHO samples were then colonized with S. Aureus bacterial suspensions (O.D. 0.1 about 10^6 UFC/tissue), which was applied topically for 4 h. After 4 h, the remaining S. aureus solution was removed and RHO tissue samples were incubated for 16 h at 37° C., 5% CO2. […]
TEER was measured as described hereafter: 0.5 ml of physiological saline solution was directly applied on the tissue placed in a 6-well plate containing 5 ml of saline solution as well. […]

[2] = system: S. aureus MRSA ATCC 33591; assay: Biofilm formation by bacterial count on colonized RHO; format: cell-based, Staphylococcus aureus
Procedure: as §1, §2, §3, §4
(§5) The RHO samples were then colonized with S. Aureus bacterial suspensions (O.D. 0.1 about 10^6 UFC/tissue), which was applied topically for 4 h. After 4 h, the remaining S. aureus solution was removed and RHO tissue samples were incubated for 16 h at 37° C., 5% CO2.
The samples for this assessment were prepared according to the procedure of example 5.
In order to perform the bacterial count on apical, basolateral and homogenate compartments, the following procedure was used: • For the basolateral compartment: 1 ml of culture medium from each well was sampled. • For the apical compartment, the samples from the TEER measurement according to example 6 were used: Each sample contained 500 μl of physiological saline solution. These samples were moved to a new 6-well plate that had been previously filled with 2 ml/well of saline solution and put in a sonicator bath for 7 minutes at 40 kHz. After sonication, 500 μl of saline solution were sampled for the apical compartment and the RHO tissues were rinsed twice with 200 μl of saline solution. The total amount of solution (900 μl) was then pooled together to obtain the harvested apical compartment. • For the homogenate compartment: a sterile scalpel blade has been used to harvest tissues from the insert and to place them in an Eppendorf tube containing 500 μL of 0.5% Triton X-100 solution prepared in sterile distilled water for at least 10 minutes.
Bacterial counts of the three compartments were performed on Nutrient Agar plates, plating the appropriate 10-fold dilutions (from the not diluted to 10-7) of each compartment suspension (one 10 μl drop for each dilution). After 1 day of incubation at 37° C., the colonies were numbered visually.

[3] = system: Reconstituted Human Oral Epithelium (RHO); assay: Re-epithelization after injury by scanning electronic microscopy; format: cell-based; conditions: T24h after injury; for film forming on the tissue surface: high molecular weight 0.2%, FIG. 6; for tissue repair / wound recovery seen by SEM: low 0.5%, intermediate 0.2%, high 0.2%, magnification 10000x, FIGS. 4-6
Procedure: Experiments were performed on Reconstituted Human Oral Epithelium (RHO). Immediately after the arrival in the laboratory, the RHO was removed from the agarose nutrient solution under a sterile airflow cabin. The inserts were rapidly placed in a 6-well plate previously filled with 1 ml of the maintenance medium at room temperature. The wells were placed in an incubator at 37° C., 5% CO2 and saturated humidity overnight. On the next day, an injury was performed with a glass capillary. The RHO samples were then treated with a solution containing hyaluronic acid having low (20-50 kDa), intermediate (100-300 kDa) or high (1,000-1,400 kDa) molecular weight. Untreated RHO was used as a control without treatment. The RHO samples for this assessment were prepared according to the procedure of example 1. 24 h after treatment with hyaluronic acid, the samples for scanning electronic microscopy (SEM) were immediately fixed by immersion in 2.5% glutaraldehyde in phosphate buffered saline (PBS) for 24 h, washing in 0.1 M sodium cacodylate buffer, pH 7.4, and then carried out in 1% osmium tetraoxide (OsO4) in the same buffer (2 h at room temperature). The samples were dehydrated in ascending grades of ethanol at room temperature and Hexamethyldisilazane overnight. The samples were placed on pins with carbon tabs, coated with a layer of gold using a Polaron Equipment limited SEM coating unit […], and then transferred to a SEM Zeiss Sigma Electron Microscope for viewing and photography. Magnification of 10000× was performed.

[4] = system: S. aureus MRSA ATCC 33591; assay: Biofilm visualization by scanning electronic microscopy; format: cell-based, Staphylococcus aureus; conditions: 100-300 kDa, 0.2% w/v, colonization with S. Aureus, after 4 h
Procedure: as §1, §2, §3, §4, §5
The samples for this experiment were prepared according to the procedure of example 5.
After treatment, samples for SEM were immediately fixed by immersion in 2.5% gluteraldehyde in PBS. […]

[5] = system: Reconstituted Human Oral Epithelium (RHO); assay: Re-epithelization after injury by TEER (trans epithelial electrical resistance); format: cell-based; conditions: 24 h after treatment; RHO injured with glass capillary; vs control not treated after injury; FIG. 1
Procedure: Experiments were performed on Reconstituted Human Oral Epithelium (RHO).
as §1, with “medium” for “medium containing antibiotics”
On the next day, an injury was performed with a glass capillary.
The RHO samples were then treated with a solution containing hyaluronic acid having low (20-50 kDa), intermediate (100-300 kDa) or high (1,000-1,400 kDa) molecular weight. Untreated RHO was used as a control without treatment.
(§6) The RHO samples for this assessment were prepared according to the procedure of example 1.
24 h after the treatment with hyaluronic acid, the trans epithelial electric resistance (TEER) was measured as follows:
0.5 ml of physiological saline solution was directly applied on the tissue placed in a 6-well plate containing 5 ml of saline solution as well. The two electrodes of a Millicell-ERS Voltohmmeter (range 0-20 kΩ) were placed were placed in two compartments on either side of the tissue, such that the electric flux passed through the tissue. The result of the measurement directly appeared on the display. […]

Integrin beta 1 (ITGB1) = assay: Re-epithelization after injury by immunohistochemistry on Integrin B1; format: cell-based, human; conditions: injured RHO, vs injured control, FIG. 7
Procedure: as §6
At the end of the exposures (at least overnight), the tissue samples were fixed in buffered 10% formalin. Samples were included in paraffin blocks and sections of 5 μm were prepared. These slides were stained with Haematoxilin and Eosin.
The used technique allows for visualization of a specific protein or antigen in cells or tissue sections by binding a specific antibody chemically conjugated with a fluorescent dye. The indirect immunofluorescence staining is a procedure, in which a secondary antibody labelled with a fluorochrome is used to recognize a primary antibody. Immunofluorescence staining can be performed on cells fixed on slides and tissue sections. Immunofluorescence stained samples are examined under a fluorescence microscope or confocal microscope.
INTEGRIN (ITGB1): Mouse monoclonal antibody anti-Integrin beta 1 (Abcam, ab3167) diluted at 2 μg/ml for a 2 h incubation at room temperature in 1% BSA in PBS; and the secondary antibody in Alexa Fluor 488 goat anti-mouse (Invitrogen, A10680). The nuclei were stained with Dapi.
The slices were examined under a Leica DM 2500 FLUO microscope and analyzed by Leica LAS software.

ZO-1 = assay: Re-epithelization after injury by immunohistochemistry on ZO-1; format: cell-based, human; conditions: injured RHO, vs injured control; FIG. 7
Procedure: The RHO samples for this assessment were prepared according to the procedure of example 1. At the end of the exposures (at least overnight), the tissue samples were fixed in buffered 10% formalin. Samples were included in paraffin blocks and sections of 5 μm were prepared. These slides were stained with Haematoxilin and Eosin. The used technique allows for visualization of a specific protein or antigen in cells or tissue sections by binding a specific antibody chemically conjugated with a fluorescent dye. The indirect immunofluorescence staining is a procedure, in which a secondary antibody labelled with a fluorochrome is used to recognize a primary antibody. Immunofluorescence staining can be performed on cells fixed on slides and tissue sections. Immunofluorescence stained samples are examined under a fluorescence microscope or confocal microscope. […] ZO-1: Rabbit polyclonal antibody anti-ZO-1 (Invitrogen, 61-7300), diluted at 5 μg/ml for an overnight incubation at 4° C. in 1% bovine serum albumin (BSA) in PBS; and the secondary antibody in Alexa Fluor 555 donkey anti-rabbit (Invitrogen, A31572). The nuclei were stained with (4′,6-diamidino-2-phenylindole) (Dapi). The slices were examined under a Leica DM 2500 FLUO microscope and analyzed by Leica LAS software.

[H]/N=C(\N/C(=N/[H])NCCCCCCNC(=N)NC(=N)Nc1ccc(Cl)cc1)Nc1ccc(Cl)cc1 [CHL, chlorhexidine, reference compound]
TEER (barrier function) of colonized RHO ([1]; 0.2% applied 24 h before colonization with S. Aureus for 4 h, then 16 h incubation, FIG. 8): TEER decreased
bacterial count, result in words ([2]; 0.2% applied 24 h before colonization with S. Aureus, FIGS. 9 and 10): strong bactericidal property

hyaluronic acid [high molecular weight hyaluronic acid]
film forming on the tissue surface [3]: film forming was observed
film forming on the tissue surface ([3]; listed as hyaluronic acid of high molecular weight): forming a film on the skin surface
tissue repair / wound recovery seen by SEM [3]: significantly less advanced

hyaluronic acid [intermediate molecular weight hyaluronic acid]
TEER (barrier function) of colonized RHO [1]: did not affect TEER
decrease of the bacterial count, apical compartment ([2]; 0.2% w/v applied 24 h before colonization with S. Aureus, FIG. 9): about 50%
decrease of the bacterial count, homogenate compartment ([2]; 0.2% w/v applied 24 h before colonization with S. Aureus, FIG. 10): about 50%
total bacterial count (bacterial proliferation) ([2]; summary of examples 5-9): −50%
polysaccharide matrix (biofilm formation) by SEM ([4]; FIG. 13): No polysaccharide matrix is visible
colonies in cluster by SEM ([4]; FIG. 13 vs FIG. 12): less colonies are in cluster
tissue repair / wound recovery seen by SEM [3]: active process of tissue repair
TEER (barrier function) after injury [5]: improved the barrier function after an injury
Integrin beta 1 expression (immunofluorescence) (Integrin beta 1 (ITGB1); listed as hyaluronic acid of intermediate molecular weight): over-expression of integrin beta 1 exclusively

hyaluronic acid [low molecular weight hyaluronic acid]
tissue repair / wound recovery seen by SEM [3]: led to a recovery of the wound
ZO-1 expression (immunofluorescence) (ZO-1): induced an over-expression
TEER (barrier function) after injury [5]: improved the barrier function after an injury
Integrin beta 1 expression (immunofluorescence) (Integrin beta 1 (ITGB1)): induced an over-expression
